“And” between values parts separate entries of the source, which are not always exact repeats. Equal values may be shown once. “Also recorded” adds a separate entry of the source. Read-outs that look alike come from different tables or passages of the source.
What was measured:
[1] = target: CYP 2C19 (Homo sapiens, UniProt P33261); test: CYP inhibition, 2C19
[2] = target: T1, RAF (Homo sapiens, UniProt P04049); test: scanEDGE DiscoverX kinome-wide scan, RAF; type: binding; conditions: 10 μM
T1 construct: purchased Eurofins DiscoverX scanEDGE
T1 sequence (P04049 whole entry): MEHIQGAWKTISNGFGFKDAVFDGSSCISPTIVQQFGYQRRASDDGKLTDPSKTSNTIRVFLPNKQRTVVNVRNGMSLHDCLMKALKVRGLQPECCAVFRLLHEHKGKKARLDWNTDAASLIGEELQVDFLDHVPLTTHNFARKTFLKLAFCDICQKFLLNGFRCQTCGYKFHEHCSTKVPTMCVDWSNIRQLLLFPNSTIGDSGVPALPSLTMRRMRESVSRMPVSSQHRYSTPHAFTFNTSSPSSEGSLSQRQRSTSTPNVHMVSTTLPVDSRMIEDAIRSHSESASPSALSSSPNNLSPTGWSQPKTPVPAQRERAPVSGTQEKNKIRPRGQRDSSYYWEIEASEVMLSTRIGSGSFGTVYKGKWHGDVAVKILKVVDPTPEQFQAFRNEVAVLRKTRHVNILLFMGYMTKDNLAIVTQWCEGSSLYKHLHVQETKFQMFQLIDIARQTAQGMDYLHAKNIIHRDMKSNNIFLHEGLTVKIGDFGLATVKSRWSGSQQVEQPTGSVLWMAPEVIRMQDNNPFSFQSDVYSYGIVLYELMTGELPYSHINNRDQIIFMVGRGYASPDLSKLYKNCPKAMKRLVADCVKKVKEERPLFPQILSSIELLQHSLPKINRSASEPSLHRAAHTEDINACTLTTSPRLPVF
Excerpt: (§1) To compare our compounds to the rest of the MEK inhibitors discovered thus far, we turned to the DiscoverX platform (KINOMEscan®, Eurofins DiscoverX), a widely used assay for comparing selectivity across the kinome. The DiscoverX platform reports the thermodynamic Kd in order to facilitate direct comparison of inhibitor affinity across the kinome, independent of ATP concentration.

[3] = system: MiaPaCa2 cells; test: cell proliferation (cell count after 72 hours), MiaPaCa2; type: cell-based, human; conditions: MiaPaCa2, 72 hours, varying doses, single agent
Experimental: (§2) After 72 hours, cells were trypsinized, counted, and the cell numbers were normalized against the DMSO treatment. Mean±SD. Graphs are representative of 3 biological replicates.
as §2
Cell numbers from different treatments were normalized against the DMSO treatment, and CDI is calculated as follows: CDI=AB/(A×B), with AB being the ratio of the combination groups to control group and A or B being the ratio of the single agent group to the DMSO group. Mean±SEM from 3 biological replicates.
(§3) We also examined the effects of these inhibitors on JNK phosphorylation and proliferation of two pancreatic cancer cell lines (CD18 and MiaPaCa2).
(§4) Human pancreatic cancer cell lines (CD18/HPAF-II and MiaPaCa2) and HEK293T cells were obtained from American Type Culture Collection. All cell lines were cultured according to the manufacturer's protocol. All media contained 10% Fetal Bovine Serum (FBS) and antibiotics (100 U/mL Penicillin and 100 μg/mL Streptomycin).

[4] = PAMPA assay (BioDuro-Sundia); type: in vitro ADME
[5] = system: JNK phosphorylation in HEK293T cells; test: anisomycin-induced JNK phosphorylation, western blotting, HEK293T; type: cell-based, human; conditions: anisomycin 45 minutes then compound 5 hours, increasing doses
Experimental: The blots are representative of at least three biological replicates.
as §3, §4
(§5) Whole cell extracts of cultured cells were prepared in radioimmunoprecipitation (RIPA) lysis buffer supplemented with phosphatase and protease inhibitors (Calbiochem). Protein concentration was determined by the bicinchoninic acid assay (BCA) (ThermoFisher) and separated by the SDS-PAGE technique. […] Secondary anti-mouse IgG (A4416) and anti-rabbit IgG (A6667) antibodies were purchased from Sigma-Aldrich and used a 1:4000 dilution. Images of blots were acquired on HyBlot ES Autoradiography Film (Thomas Scientific, Swedesboro, NJ, USA) following incubation with SuperSignal West Pico PLUS (ThermoFisher).

[6] = Log D study (BioDuro-Sundia); conditions: pH of 7.4
[7] = in vitro; conditions: microsomes
[8] = system: phospho-p42/44 MAPK in CD18 cells; test: p42/44 MAPK phosphorylation, western blotting, CD18; type: cell-based, human; conditions: CD18, MEK4 inhibitor 10 μM, 5 hours
Experimental: The effects of different treatments on phospho-p42/44 MAPK and total p42/44 MAPK expression levels were determined by western blotting. HSP90 was used as loading control. The blots are representative of at least three biological replicates.
as §5

[9] = target: CYP 2D6 (Homo sapiens, UniProt P10635); test: CYP inhibition, 2D6
Sequence of CYP 2D6 (P10635 whole entry): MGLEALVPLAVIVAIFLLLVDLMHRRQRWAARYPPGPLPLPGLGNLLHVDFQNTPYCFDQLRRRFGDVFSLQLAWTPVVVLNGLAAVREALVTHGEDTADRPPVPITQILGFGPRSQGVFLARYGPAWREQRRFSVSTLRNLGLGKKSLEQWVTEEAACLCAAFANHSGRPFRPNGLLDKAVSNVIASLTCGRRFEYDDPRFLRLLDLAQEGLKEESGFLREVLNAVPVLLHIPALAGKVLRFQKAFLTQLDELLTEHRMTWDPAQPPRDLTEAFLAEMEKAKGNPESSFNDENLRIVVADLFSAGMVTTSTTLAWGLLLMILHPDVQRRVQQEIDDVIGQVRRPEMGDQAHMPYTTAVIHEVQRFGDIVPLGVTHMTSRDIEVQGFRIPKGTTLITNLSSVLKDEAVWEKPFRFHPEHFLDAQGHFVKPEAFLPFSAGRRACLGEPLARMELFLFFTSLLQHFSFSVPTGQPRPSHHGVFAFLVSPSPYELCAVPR

[10] = target: T2, MEK7 (Homo sapiens, UniProt O14733); test: ADP-Glo kinase activity assay, MEK7; type: biochemical
T2 construct: purchased Carna Biosciences
T2 sequence (O14733 1-419): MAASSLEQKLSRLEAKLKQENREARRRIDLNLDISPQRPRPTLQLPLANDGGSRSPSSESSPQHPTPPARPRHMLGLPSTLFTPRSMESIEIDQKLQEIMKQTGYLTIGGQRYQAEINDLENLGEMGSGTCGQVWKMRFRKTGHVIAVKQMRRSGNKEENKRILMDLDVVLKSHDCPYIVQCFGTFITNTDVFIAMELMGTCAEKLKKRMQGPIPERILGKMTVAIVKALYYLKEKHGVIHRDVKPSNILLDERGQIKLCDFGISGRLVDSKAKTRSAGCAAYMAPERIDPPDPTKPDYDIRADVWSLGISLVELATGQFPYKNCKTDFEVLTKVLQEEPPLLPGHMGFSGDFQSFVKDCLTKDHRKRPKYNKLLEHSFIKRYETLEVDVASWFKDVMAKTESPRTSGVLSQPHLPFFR
Experimental: The compounds were then evaluated both in vitro and in a cellular system. When studying kinase inhibitors, there are a multitude of ways to evaluate selectivity across kinases.
Procedure for a 5 μL Kinase reaction using the ADP-Glo Kinase Assay Kit from Promega. Staurosporine was used as the positive control, and DMSO as the negative control. Activity of recombinant active full-length human MEK4 (Carna Biosciences) was measured using the ADP-Glo assay with recombinant full-length human p38α (MAPK14). Kinase reactions with MEK7 (Carna Biosciences) were done at the same concentration and amounts with recombinant full-length human p38α (MAPK14).
For each well, 4 ng of MEK4 and 600 ng of p38α in Kinase buffer (CST) were used, and 1 μL of this mixture was dispensed per well.
Inhibitor was prepared in a DMSO solution. A dose response dilution was done in a 384-well Echo transfer plate. […] This mixture was allowed to incubate for 30 minutes at room temperature.
Using a Mantis, 1 μL, of an 8 μM ATP solution was added to each well, and the plate was allowed to incubate for another 1 hour at room temperature. […] All experiments were done in triplicate on the plate, and at least in one separate technical duplicate.

[11] = system: 97 kinases; test: scanEDGE DiscoverX kinome-wide scan; type: binding; conditions: 10 μM
Excerpt: as §1

[12] = system: JNK1/2/3; test: scanEDGE DiscoverX kinome-wide scan, JNK1/2/3; type: binding; conditions: 10 μM
Excerpt: as §1

[13] = target: T3, ERK1 (Homo sapiens, UniProt P27361); test: scanEDGE DiscoverX kinome-wide scan, ERK1; type: binding; conditions: 10 μM
T3 construct: purchased Eurofins DiscoverX scanEDGE
T3 sequence (P27361 whole entry): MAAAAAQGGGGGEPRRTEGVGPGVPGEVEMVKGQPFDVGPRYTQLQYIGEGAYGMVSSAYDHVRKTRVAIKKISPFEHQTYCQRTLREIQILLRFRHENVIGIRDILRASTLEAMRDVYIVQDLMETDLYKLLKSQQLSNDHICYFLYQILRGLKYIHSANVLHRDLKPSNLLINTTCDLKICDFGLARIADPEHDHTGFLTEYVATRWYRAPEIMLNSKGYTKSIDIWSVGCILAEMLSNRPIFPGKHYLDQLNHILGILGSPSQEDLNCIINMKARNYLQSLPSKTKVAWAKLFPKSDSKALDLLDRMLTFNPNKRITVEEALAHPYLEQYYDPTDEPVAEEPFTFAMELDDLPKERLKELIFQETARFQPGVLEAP
Excerpt: as §1

[14] = system: MEK7 expression in HEK293T cells; test: MEK7 expression, western blotting, HEK293T; type: cell-based, human; conditions: anisomycin pretreatment, compound 100 μM, 5 hours
Experimental: (§6) HSP90 was used as loading control. The blots are representative of at least three biological replicates.
We next evaluated the effects of our inhibitors on the phosphorylation activity and expression of MEK1/2, MEK3/6, and MEK7. […] We also evaluated the effects on p42/44 MAPK (ERK1/2), which functions downstream of MEK1/2.
as §5

[15] = system: JNK phosphorylation in MiaPaCa2 cells; test: anisomycin-induced JNK phosphorylation, western blotting, MiaPaCa2; type: cell-based, human; conditions: MiaPaCa2, anisomycin 45 minutes then compound 5 hours
Experimental: as §6, §3, §4, §5

Sequence of CYP 2C19 (P33261 whole entry): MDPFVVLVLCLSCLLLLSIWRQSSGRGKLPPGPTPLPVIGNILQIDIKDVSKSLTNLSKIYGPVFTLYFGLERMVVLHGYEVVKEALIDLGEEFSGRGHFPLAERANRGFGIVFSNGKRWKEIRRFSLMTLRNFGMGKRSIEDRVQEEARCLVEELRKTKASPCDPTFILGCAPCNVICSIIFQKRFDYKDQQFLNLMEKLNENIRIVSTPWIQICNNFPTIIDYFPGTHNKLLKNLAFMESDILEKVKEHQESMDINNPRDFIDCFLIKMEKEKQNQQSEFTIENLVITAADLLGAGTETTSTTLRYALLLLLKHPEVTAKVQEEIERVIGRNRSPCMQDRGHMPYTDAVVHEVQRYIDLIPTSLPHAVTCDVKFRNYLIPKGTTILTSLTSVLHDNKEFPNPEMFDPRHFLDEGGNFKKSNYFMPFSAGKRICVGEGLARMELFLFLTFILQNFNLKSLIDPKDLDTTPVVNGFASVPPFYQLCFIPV

## NC(=O)c1ccc(NS(=O)(=O)c2cccc(-c3n[nH]c4cc(F)ccc34)c2)cc1 [Compound 15o, 4-((3-(6-fluoro-1H-indazol-3-yl)phenyl)sulfonamido)benzamide]
[1]
  inhibition of CYP 2C19: inhibited
[2]
  inhibition of RAF: did not inhibit
[3]
  cell proliferation: decreased proliferation; also recorded: antiproliferative properties
[4]
  permeability in the PAMPA assay: low permeability
[5]
  effect on anisomycin-induced JNK phosphorylation: attenuated anisomycin-induced INK phosphorylation in a dose-dependent manner
[6]
  log D: 3.22
[7]
  half-life: > 3.08 h
  stability in the microsome assay: good stability
[8]
  effect on p42/44 MAPK phosphorylation: increased p42/44 MAPK phosphorylation
[9]
  inhibition of CYP 2D6: low inhibition
[10]; headline value per compound, read-out: MEK7 IC50
  IC50: 96 nM
[10]; individual experiment, values in brackets, n=3, read-out: MEK7 IC50 of each experiment (IC50±SEM)
  IC50: 41 nM and 150 nM
[11]
  number of kinases hit at 80% or higher inhibition, out of 97 kinases: 28
[12]
  inhibition of JNK1/2/3: did inhibit
[13]
  inhibition of ERK1: did not inhibit
[14]
  effect on the expression of MEK7: no effect
[15]
  effect on anisomycin-induced JNK phosphorylation: attenuated anisomycin-induced JNK phosphorylation

Source: patent publication US20240116875A1, “RATIONAL DESIGN, OPTIMIZATION, AND BIOLOGICAL EVALUATION OF NOVEL MEK4 INHIBITORS AGAINST PANCREATIC ADENOCARCINOMA” (NORTHWESTERN UNIVERSITY, priority 2022, published 2024)
